In patent publication US12485123B2, “1H-pyrazolo[4,3-d]pyrimidine compounds as toll-like receptor 7 (TLR7) agonists” (BRISTOL-MYERS SQUIBB COMPANY, priority 2020, dated 2025) one finds EC50 data, which are given here for 2 compounds.

Each structure is given as a SMILES string.

One may read the EC50 as the concentration at which the effect is half-maximal.

Assay [1] deals with T1, human TLR7 (Homo sapiens, UniProt Q9NYK1).
T1 construct: host or cells: HEK-Blue TLR7 cells (engineered human embryonic kidney cells)
T1 sequence (Q9NYK1 27-1049): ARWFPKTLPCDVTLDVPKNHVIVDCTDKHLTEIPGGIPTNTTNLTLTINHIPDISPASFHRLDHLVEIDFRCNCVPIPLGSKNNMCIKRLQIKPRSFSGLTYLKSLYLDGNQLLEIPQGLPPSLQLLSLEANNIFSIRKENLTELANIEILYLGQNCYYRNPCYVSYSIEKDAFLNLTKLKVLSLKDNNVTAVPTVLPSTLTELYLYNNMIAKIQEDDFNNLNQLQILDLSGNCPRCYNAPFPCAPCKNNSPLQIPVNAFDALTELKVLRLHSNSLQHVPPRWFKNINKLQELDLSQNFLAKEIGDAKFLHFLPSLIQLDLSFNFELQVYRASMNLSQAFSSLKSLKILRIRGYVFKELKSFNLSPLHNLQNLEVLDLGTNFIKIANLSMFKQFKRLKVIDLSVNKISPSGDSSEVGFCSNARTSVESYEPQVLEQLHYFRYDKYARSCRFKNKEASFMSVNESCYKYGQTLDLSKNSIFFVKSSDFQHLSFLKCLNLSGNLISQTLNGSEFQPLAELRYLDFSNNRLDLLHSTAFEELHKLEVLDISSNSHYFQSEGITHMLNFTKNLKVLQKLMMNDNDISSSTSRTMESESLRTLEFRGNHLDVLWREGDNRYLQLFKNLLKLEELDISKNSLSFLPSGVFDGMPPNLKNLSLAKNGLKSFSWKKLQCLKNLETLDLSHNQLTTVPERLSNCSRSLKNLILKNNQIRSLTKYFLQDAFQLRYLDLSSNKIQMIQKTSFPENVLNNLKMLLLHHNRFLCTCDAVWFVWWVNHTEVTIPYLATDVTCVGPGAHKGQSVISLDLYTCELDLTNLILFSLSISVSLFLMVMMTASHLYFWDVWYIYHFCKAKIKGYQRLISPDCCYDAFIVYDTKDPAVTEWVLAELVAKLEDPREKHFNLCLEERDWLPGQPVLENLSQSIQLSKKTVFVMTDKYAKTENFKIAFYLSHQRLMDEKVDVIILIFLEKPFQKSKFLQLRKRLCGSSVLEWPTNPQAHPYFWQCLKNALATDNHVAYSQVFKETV
The assay can be described thus: Human TLR7 agonist activity reporter assay (HEK-Blue TLR7 cells, SEAP reporter). The format is cell-based. To be noted: human TLR7 (hTLR7) reporter assay, SEAP readout after 18 h, average where assay repeated, read-out: TLR7 Agonism EC50.

Assay [2] relates to CD69. The assay can be described thus: Induction of CD69 in human whole blood. The format is cell-based. To be noted: 17 hrs incubation, CD69 surface staining, 100% set to 1 uM of resiquimod, average where assay repeated, read-out: hWB CD69 EC50.

As to `CCC[C@@H](CCO)Nc1nc(N)nc2cnn(Cc3ccc(CN4CCN(CCO)CC4)c4cccnc34)c12` [Compound 139, (3S)-3-({5-amino-1-[(5-{[4-(2-hydroxyethyl)piperazin-1-yl]methyl}quinolin-8-yl)methyl]-1H-pyrazolo[4,3-d]pyrimidin-7-yl}amino)hexan-1-ol], the results for the EC50 in assay [1] and in assay [2] were 5.5 nM and 16.2 nM, respectively.

In the case of `CCC[C@@H](CCO)Nc1nc(N)nc2c(C)nn(Cc3ccc(C(=O)NC4CCN(C)CC4)c4cccnc34)c12` [Compound 123, 8-[(5-amino-7-{[(3S)-1-hydroxyhexan-3-yl]amino}-3-methyl-1H-pyrazolo[4,3-d]pyrimidin-1-yl)methyl]-N-(1-methylpiperidin-4-yl)quinoline-5-carboxamide], the results for the EC50 in assay [1] and in assay [2] were 732 nM and 661 nM, respectively.
